Source: patent US10836734B2, “Spiroquinone derivative compound, production method thereof, and pharamaceutical composition for preventing or treating neurological disorders which contains same as active ingredient” (GACHON UNIVERSITY OF INDUSTRY-ACADEMIC COOPERATION …, priority 2016, dated 2020)

Tests used:
[1] = biological target: acetylcholine esterase (eeAChE, EC 3.1.1.7) (Electrophorus electricus, UniProt O42275); assay: Acetylcholine esterase inhibition activity (ACh quantification colorimetric assay kit); type: biochemical; conditions: read-out: Residual activity of acetylcholine esterase (%); for remaining activity at 10 µM: 10 μM compound; for remaining activity at 30 µM: 30 μM compound
Experimental: Particularly, a quantitative kit (ACh quantification colorimetric assay kit from BioVision) was prepared in order to quantify acetylcholine esterase (eeAChE, EC 3.1.1.7) and acetylcholine chloride (ACh) of Electrophorus electricus and acetylcholine. To measure the enzyme inhibition activity of the compound of the example of the invention, the following experiment was performed based on the standardized method of the manufacturer of the Ach kit (Draczkowski, P. et al. Bba-Gen Subjects 1860, 967-974, doi:10.1016/j.bbagen.2015.11.006 (2016)).
First, acetylcholine esterase (eeAChE, EC 3.1.1.7) was dissolved in […] Tris-HCL buffer at the concentration of 5 μM. Acetylcholine chloride was dissolved in 20 mM Tris-HCL buffer, resulting in the preparation of a Tris-HCL aqueous solution containing 10 μM acetylcholine chloride. The compound of the example was prepared in different concentrations of 10 μM and 30 μM. The prepared acetylcholine chloride solution and the compound solution were mixed in 20 μM acetylcholine esterase. 20 minutes and 30 minutes after mixing, the color change of the quantitative kit was measured at 570 nm in order to evaluate the inhibitory effect of the compound particularly to inhibit acetylcholine esterase that decomposes acetylcholine into choline.
All the experiments were repeated at least twice, from which the mean values and the standard deviations were calculated.

[2] = system: murine microglial BV-2 cells; assay: Quantification of nitrite generation in LPS treated nerve cell line; type: cell-based; conditions: Mus musculus; LPS treated BV-2 cells; FIG. 5; read-out: IC50 for nitric oxide
Experimental: Particularly, in order to quantify the nitrite generation in the LPS treated nerve cell line, nitrite generated from nitric oxide secreted therein was quantified. With the quantified nitrite, the inhibition of microglial activation and the neuron protection effect thereby were examined. The nerve cell line (BV2) was treated with LPS ([…]), and then treated with the compound of the present invention at different concentrations of 0.01 μM, 0.1 μM and 1 μM, or 1 μM, 5 μM and 10 μM (Con: DMSO treated group (not treated with the compound of the invention and LPS), LPS: LPS treated group ([…])).
Further, IC50 was calculated from the quantification of nitric oxide measured by concentration gradient in FIGS. 1 and 3, and the results are shown in FIG. 5.

acetylcholine esterase (eeAChE, EC 3.1.1.7), sequence (O42275 24-633): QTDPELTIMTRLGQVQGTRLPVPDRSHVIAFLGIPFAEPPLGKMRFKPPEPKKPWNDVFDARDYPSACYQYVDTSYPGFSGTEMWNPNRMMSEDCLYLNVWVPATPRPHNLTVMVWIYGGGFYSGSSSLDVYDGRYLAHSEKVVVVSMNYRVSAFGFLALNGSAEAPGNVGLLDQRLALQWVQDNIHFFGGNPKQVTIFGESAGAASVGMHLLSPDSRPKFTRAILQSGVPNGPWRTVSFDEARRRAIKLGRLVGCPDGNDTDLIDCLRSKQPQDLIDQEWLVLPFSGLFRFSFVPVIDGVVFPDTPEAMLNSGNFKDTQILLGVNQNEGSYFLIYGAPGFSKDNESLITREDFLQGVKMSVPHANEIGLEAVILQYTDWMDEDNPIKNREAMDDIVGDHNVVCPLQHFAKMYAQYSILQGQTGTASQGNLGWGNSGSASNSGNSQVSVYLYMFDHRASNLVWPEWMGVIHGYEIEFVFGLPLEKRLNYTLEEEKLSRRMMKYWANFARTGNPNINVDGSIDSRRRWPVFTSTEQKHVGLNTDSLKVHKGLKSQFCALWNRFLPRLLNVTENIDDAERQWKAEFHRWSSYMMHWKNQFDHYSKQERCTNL

SMILES	remaining activity at 10 µM [1] [%]	remaining activity at 30 µM [1] [%]	IC50 [2] [µM]
CC1COC2(C=CC(=O)C=C2)N(c2ccccc2)C1=O (stereo not drawn) [Example 2, 3-methyl-5-phenyl-1-oxa-5-azaspiro[5,5]undeca-7,10-diene-4,9-dione]	29.7	7.03	–
C=CCC1COC2(C=CC(=O)C=C2)N(c2ccccc2)C1=O (stereo not drawn) [Example 3, 3-allyl-5-phenyl-1-oxa-5-azaspiro[5,5]undeca-7,10-diene-4,9-dione]	30.3	-2.03	–
O=C1C=CC2(C=C1)OCC(Cc1ccccc1)C(=O)N2c1ccccc1 (stereo not drawn) [Example 6, 3-benzyl-5-phenyl-1-oxa-5-azaspiro[5,5]undeca-7,10-diene-4,9-dione]	40.2	6.07	–
O=C1C=CC2(C=C1)OCC(Cc1ccc(F)cc1)C(=O)N2c1ccccc1 (stereo not drawn) [Example 7, 3-(4-fluoro-benzyl)-5-phenyl-1-oxa-5-azaspiro[5,5]undeca-7,10-diene-4,9-dione]	46.7	4.74	–
O=C1C=CC2(C=C1)OCC(Cc1ccc(Br)cc1)C(=O)N2c1ccccc1 (stereo not drawn) [Example 10, 3-(4-bromo-benzyl)-5-phenyl-1-oxa-5-azaspiro[5,5]undeca-7,10-diene-4,9-dione]	27.3	12.9	–
O=C1C=CC2(C=C1)OCC(Cc1ccc(C(F)(F)F)cc1)C(=O)N2c1ccccc1 (stereo not drawn) [Example 11, 3-(4-trifluoromethyl-benzyl)-5-phenyl-1-oxa-5-azaspiro[5,5]undeca-7,10-diene-4,9-dione]	69.4	22.1	–
O=C1C=CC2(C=C1)OCC(Cc1cc(C(F)(F)F)cc(C(F)(F)F)c1)C(=O)N2c1ccccc1 (stereo not drawn) [Example 14, 3-(3,5-ditrifluoromethyl-benzyl)-5-phenyl-1-oxa-5-azaspiro[5,5]undeca-7,10-diene-4,9-dione]	–	–	~0.3
O=C1C=CC2(C=C1)OCC(Cc1ccccc1)C(=O)N2c1cccnc1 (stereo not drawn) [Example 19, 3-benzyl-5-(pyridine-3-yl)-1-oxa-5-azaspiro[5,5]undeca-7,10-diene-4,9-dione]	66.1	8.07	–
CC1COC2(C=CC(=O)C(F)=C2)N(c2ccccc2)C1=O (stereo not drawn) [Example 22, 3-methyl-8-fluoro-5-phenyl-1-oxa-5-azaspiro[5,5]undeca-7,10-diene-4,9-dione]	51.6	2.47	–
C=CCC1COC2(C=CC(=O)C(F)=C2)N(c2ccccc2)C1=O (stereo not drawn) [Example 23, 3-allyl-8-fluoro-5-phenyl-1-oxa-5-azaspiro[5,5]undeca-7,10-diene-4,9-dione]	38.1	5.64	–
O=C1C=CC2(C=C1F)OCC(Cc1ccccc1)C(=O)N2c1ccccc1 (stereo not drawn) [Example 24, 3-benzyl-8-fluoro-5-phenyl-1-oxa-5-azaspiro[5,5]undeca-7,10-diene-4,9-dione]	35.6	8.89	–
CC1=CC2(C=CC1=O)OCC(C)C(=O)N2c1ccccc1 (stereo not drawn) [Example 25, 3,8-dimethyl-5-phenyl-1-oxa-5-azaspiro[5,5]undeca-7,10-diene-4,9-dione]	20.9	8.15	–
CC1=CC2(C=CC1=O)OCC(Cc1ccccc1)C(=O)N2c1ccccc1 (stereo not drawn) [Example 28, 3-benzyl-8-methyl-5-phenyl-1-oxa-5-azaspiro[5,5]undeca-7,10-diene-4,9-dione]	55.4	3.08	–
CN1C(=O)C(Cc2ccccc2)COC12C=CC(=O)C=C2 (stereo not drawn) [Example 33, 3-benzyl-5-methyl-1-oxa-5-azaspiro[5,5]undeca-7,10-diene-4,9-dione]	50.5	2.08	–
